Read-outs that look alike come from different tables or passages of the source.
Columns and labels:
[1] = Cmax in blood at doses used in prior clinical trials; type: in vivo; settings: dose 1 mg; read-out: Converted (M) Cmax
Text: See Maximov et al., Current Clinical Pharmacology 8(2): 135-155 (2013). […] See Assessment Report for Fablyn, 2009 (EMA). […] See Gardner et al., J Clin Pharmacol 46(1): 52-58 (2006).

[2] = test system: ER+ HER2− advanced or metastatic breast cancer; assay: Phase 2 clinical study, lasofoxifene versus fulvestrant; type: in vivo, postmenopausal women; settings: 5 mg once daily oral
Protocol: The design of the study is outlined in FIG. 26. The study is an open label, randomized, multicenter study. Full recruitment into study occurs within twelve to sixteen months, with another twelve months of follow up before the primary outcome measure is analyzed. Screening tests are performed within thirty days of enrollment. Subjects are treated until documented disease progression.
As a comparison, fulvestrant is given to the breast cancer patient at 500 mg by intramuscular injection on day 1, day 15, and day 29, and then once every month.
The inclusion criteria include: • 1. Postmenopausal women with: a. locally advanced or metastatic breast cancer with either measurable or non-measurable lesions, b. progression on an AI in combination with a CDK 4/6 inhibitor for advanced breast cancer; • 2. If possible, a biopsy of metastatic breast cancer tissue will be obtained to confirm ER^+ and HER2^− disease; • 3. At least one or more of the following ESR1 mutations: Y537S, Y537N, Y537C, D538G, L536, E380Q, or S463P assessed from […] in blood; • 4. Received one chemotherapy regimen in the neo-adjuvant or adjuvant setting prior to entry into the trial; • 5. ECOG performance score of 0 or 1.

[3] = test system: MCF7 D538G; assay: Mammary intraductal (MIND) xenograft model, MCF7 D538G; type: in vivo, NSG mice
Protocol: (§1) MCF7 cells were engineered with CRISPR/Cas9 to express ERα with Y537S and D538G mutations. To mimic the natural environment of infiltrating ductal ERα^+ breast cancers, NSG™ mice were injected, via the nipple in the inguinal mammary glands, with three MCF7 cell variants: wild type MCF7 cells (MCF7 WT), MCF7 cells expressing Y537S mutant ERα (MCF7 Y537S), and MCF7 cells expressing D538G mutant ERα (MCF7 D538G), respectively. Prior to injection, the MCF7 cells were labeled with a luciferase reporter to monitor tumor growth in vivo using a Xenogen IVIS imager. […] FIG. 4 summarizes the experimental design.

[4] = biological target: T1, ERα wild-type LBD (Homo sapiens, UniProt P03372, C381S/C417S/C530S/L536S); assay: X-ray crystal structure of ligand-bound ERα wild-type LBD (L536S)
T1 construct: 6x-His-TEV (N, cleaved yes); made in house; host or cells: E. coli BL21(DE3)
T1 sequence (P03372 311-547 C381S/C417S/C530S/L536S limits assumed): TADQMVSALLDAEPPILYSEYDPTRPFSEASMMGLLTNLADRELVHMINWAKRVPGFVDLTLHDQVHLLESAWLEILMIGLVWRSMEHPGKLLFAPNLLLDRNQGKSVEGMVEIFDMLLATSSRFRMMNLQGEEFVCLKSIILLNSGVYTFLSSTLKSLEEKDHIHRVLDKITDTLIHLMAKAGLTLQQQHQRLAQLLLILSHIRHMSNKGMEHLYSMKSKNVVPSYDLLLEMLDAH
Protocol: 6x-His-TEV-Estrogen receptor alpha ligand binding domain containing C381S, C417S, C530S with L536S or Y537S mutations were expressed in E. coli BL21(DE3). The L536S mutant stabilizes the wild-type antagonist conformation and Y537S is an activating somatic mutation that has been identified in patients with acquired hormone resistance. Both proteins were purified using Ni-NTA resin, the 6x-His tag was cleaved using tev protease, removed using Ni-NTA resin, and a final purification was performed by passing the protein over a size exclusion column. The main peak was concentrated to 10 mg/mL and flash frozen.
Hanging drop vapor diffusion was used to crystallize the complexes. The L536S-Laso (lasofoxifene-bound ERα wild-type LBD) complex formed clear hexagonal crystals in 25% PEG 8,000, 200 mM MgCl2, HEPES pH 7.5 after two weeks at room temperature. The Y537S-Laso (lasofoxifene-bound ERα Y537S mutant LBD) complex formed rectangular crystals in 20% PEG 3.35K, 200 mM MgCl2, HEPES pH 6.5 after one week at room temperature.
Crystals were cryo-protected in 25% glycerol in mother liquor and flash frozen in liquid nitrogen. All x-ray crystallographic data sets were collected at the Advanced Photon Source. The L536S-Laso complex diffracted to 1.8 Å and the Y537S-Laso complex diffracted to 2.1 Å by cc^1/2 over 50%. Phaser was used for molecular replacement with 5UFX as the model. […]

[5] = test system: MCF7 Y537S; assay: Mammary intraductal (MIND) xenograft model, MCF7 Y537S; type: in vivo, NSG mice
Protocol: as §1

[6] = test system: MCF7 cells stably expressing DOX-inducible ER Y537S; assay: Dose response cell counting in MCF7 cells with DOX-inducible HA-tagged ER Y537S; type: cell-based; settings: for IC50: Homo sapiens, MCF7, 120 h, allele Y537S, cell count day 5, full medium
Protocol: MCF7 estrogen receptor alpha positive (ER^+) breast cancer cells were engineered to stably express doxycycline (DOX)-inducible hemagglutinin (HA)-tagged full length ER with ligand binding domain mutations Y537S and D538G. The introduction and expression of the mutants were confirmed by Sanger sequencing, RNA-sequencing, and western blot.
The dose response studies were performed in full medium conditions. Cells were treated with DOX for the induction of HA-tagged mutated ER or with vehicle as control, and plated in triplicate. Subsequently, on day 5, cell counting was performed using the Celigo instrument with Hoechst dye staining to detect nucleated live cells and propidium iodide to quantify dead cells.
IC50 values were calculated using PRISM.

[7] = MCF7 Y537S, 5 mg/kg and 10 mg/kg, after 70 days

Oc1ccc2c(c1)CC[C@H](c1ccccc1)[C@@H]2c1ccc(OCCN2CCCC2)cc1 [Lasofoxifene, lasofoxifene]
Cmax [1]: 1.55e-08 M
median PFS compared to fulvestrant ([2]; D538G mutant patient population): increases the median PFS
median PFS compared to fulvestrant ([2]; E380Q mutant patient population): increases the median PFS
median PFS compared to fulvestrant ([2]; ESR1 mutation population): increases the median PFS
median PFS compared to fulvestrant ([2]; L536 mutant patient population): increases the median PFS
median PFS compared to fulvestrant ([2]; S463P mutant patient population): increases the median PFS
median PFS compared to fulvestrant ([2]; Y537C mutant patient population): increases the median PFS
median PFS compared to fulvestrant ([2]; Y537N mutant patient population): increases the median PFS
median PFS compared to fulvestrant ([2]; Y537S mutant patient population): increases the median PFS
tumor growth monitored by total flux ([3]; MCF7 D538G mice, 10 mg/kg five times per week subcutaneous): most significantly inhibited
tumor weight, compared to fulvestrant ([3]; MCF7 D538G, 5 mg/kg and 10 mg/kg, after 70 days): significantly more effective
tumor growth measured by tumor weight, compared to vehicle control ([3]; MCF7 D538G, 10 mg/kg, after 70 days of treatment): significantly inhibited
liver metastasis ([3]; MCF7 D538G, all tested doses (1, 5, 10 mg/kg), after 70 days): effective in reducing liver metastasis at all tested doses
loop between helix 11 and helix 12 in the crystal structure [4]: does not disrupt the loop between helix 11 and helix 12
tumor growth monitored by total flux ([5]; MCF7 Y537S mice, 10 mg/kg five times per week subcutaneous): most significantly inhibited
liver metastasis, compared to fulvestrant [5, 7]: significantly more effective in reducing liver metastasis
tumor weight, compared to fulvestrant [5, 7]: significantly more effective
tumor growth measured by tumor weight, compared to vehicle control ([5]; MCF7 Y537S, 10 mg/kg, after 70 days of treatment): significantly inhibited
tumor growth measured by tumor weight ([5]; MCF7 Y537S, all tested doses (1, 5, 10 mg/kg), after 70 days): significantly inhibited the growth of tumors at all tested doses
lung metastasis ([5]; MCF7 Y537S, lasofoxifene 5 mg/kg and 10 mg/kg, after 70 days): significantly reduce lung metastasis
IC50 ([6]; DOX-induced mutant ER, read-out: IC50 DOX (ESR mutation)): 4.1 nM
IC50 ([6]; no DOX, read-out: IC50 No DOX (wt only)): 0.36 nM
anti-estrogenic activity, cell killing with increasing dose titration ([6]; Y537S stable transfectants, 10^−12 M to 10^−6 M): kill the stably transfected cells

Reference: patent US11974983B2 (Duke University, priority 2018, dated 2024)
